Experimental data taken from patent US8168680B2, “Cyclopentane heptan(ENE)OIC acid, 2-heteroarylalkenyl derivatives as therapeutic agents” (Allergan, Inc., priority 2004, dated 2012).

Experiments:
Format in all cases: cell-based
hFP = biological target: T1, hFP (Homo sapiens, UniProt P43088); test: FLIPR calcium signal, HEK-293(EBNA) cells expressing hFP; conditions: recombinant human FP receptor, read-out: FUNCTIONAL DATA EC50 HFP
T1 construct: expressed in transfected cells; host or cells: HEK-293(EBNA)
T1 sequence (P43088 whole entry): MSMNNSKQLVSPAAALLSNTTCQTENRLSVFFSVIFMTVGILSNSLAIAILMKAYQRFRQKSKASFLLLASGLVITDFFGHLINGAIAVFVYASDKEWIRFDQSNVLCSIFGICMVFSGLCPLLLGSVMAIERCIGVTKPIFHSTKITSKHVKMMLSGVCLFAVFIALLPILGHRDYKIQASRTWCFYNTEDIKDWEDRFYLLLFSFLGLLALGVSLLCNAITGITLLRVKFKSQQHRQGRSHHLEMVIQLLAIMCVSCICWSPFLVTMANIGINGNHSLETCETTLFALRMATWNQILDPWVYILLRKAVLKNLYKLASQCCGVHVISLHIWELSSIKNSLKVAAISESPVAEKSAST
Protocol: (§1) Methods for FLIPR™ Studies
(§2) HEK-293(EBNA) cells, stably expressing one type or subtype of recombinant human prostaglandin receptors (prostaglandin receptors expressed: hDP/Gqs5; hEP1; hEP2/Gqs5; hEP3A/Gqi5; hEP4/Gqs5; hFP; hIP; hTP), were cultured in 100 mm culture dishes in high-glucose DMEM medium containing 10% fetal bovine serum, 2 mM 1-glutamine, 250 μg/ml geneticin (G418) and 200 μg/ml hygromycin B as selection markers, and 100 units/ml penicillin G, 100 μg/ml streptomycin and 0.25 μg/ml amphotericin B.
(§3) (b) Calcium Signal Studies on the FLIPR™
(§4) Cells were seeded at a density of 5×10^4 cells per well in Biocoat® Poly-D-lysine-coated black-wall, clear-bottom 96-well plates (Becton-Dickinson) and allowed to attach overnight in an incubator at 37° C. Cells were then washed two times with HBSS-HEPES buffer (Hanks Balanced Salt Solution without bicarbonate and phenol red, 20 mM HEPES, pH 7.4) using a Denley Cellwash plate washer (Labsystems). After 45 minutes of dye-loading in the dark, using the calcium-sensitive dye Fluo-4 AM at a final concentration of 2 μM, plates were washed four times with HBSS-HEPES buffer to remove excess dye leaving 100 μl in each well. Plates were re-equilibrated to 37° C. for a few minutes.
(§5) Cells were excited with an Argon laser at 488 nm, and emission was measured through a 510-570 nm bandwidth emission filter (FLIPR™, Molecular Devices, Sunnyvale, Calif.). Drug solution was added in a 50 μl volume to each well to give the desired final concentration. The peak increase in fluorescence intensity was recorded for each well. On each plate, four wells each served as negative (HBSS-HEPES buffer) and positive controls (standard agonists: BW245C (hDP); PGE2 (hEP1; hEP2/Gqs5; hEP3A/Gqi5; hEP4/Gqs5); PGF2α (hFP); carbacyclin (hIP); U-46619 (hTP), depending on receptor). The peak fluorescence change in each drug-containing well was then expressed relative to the controls.
Compounds were tested in a high-throughput (HTS) or concentration-response (CoRe) format. In the HTS format, forty-four compounds per plate were examined in duplicates at a concentration of 10^−5 M. To generate concentration-response curves, four compounds per plate were tested in duplicates in a concentration range between 10^−5 and 10^−11 M. The duplicate values were averaged. In either, HTS or CoRe format each compound was tested on at least 3 separate plates using cells from different passages to give an n≧3.

hEP3A/Gqi5 = biological target: T2, hEP3A/Gqi5 (Homo sapiens, UniProt P43115); test: FLIPR calcium signal, HEK-293(EBNA) cells expressing hEP3A/Gqi5; conditions: recombinant human EP3A/Gqi5, HEK-293(EBNA), read-out: FUNCTIONAL DATA EC50 HEP3A
T2 construct: expressed in transfected cells; host or cells: HEK-293(EBNA)
T2 sequence (P43115 1-390): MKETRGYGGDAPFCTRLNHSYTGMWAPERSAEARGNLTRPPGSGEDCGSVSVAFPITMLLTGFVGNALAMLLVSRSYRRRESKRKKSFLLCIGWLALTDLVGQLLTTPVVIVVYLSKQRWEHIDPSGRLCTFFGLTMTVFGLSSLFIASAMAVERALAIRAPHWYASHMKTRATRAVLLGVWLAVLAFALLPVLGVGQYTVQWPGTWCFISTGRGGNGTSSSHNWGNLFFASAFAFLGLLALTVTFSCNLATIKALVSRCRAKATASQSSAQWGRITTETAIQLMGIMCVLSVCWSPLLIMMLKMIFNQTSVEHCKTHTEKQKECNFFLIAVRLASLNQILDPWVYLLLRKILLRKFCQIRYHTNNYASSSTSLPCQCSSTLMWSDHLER
Protocol: as §1, §2, §3, §4, §5
(§6) Compounds were tested in a high-throughput (HTS) or concentration-response (CoRe) format. […]

hTP = biological target: T3, hTP (Homo sapiens, UniProt P21731); test: FLIPR calcium signal, HEK-293(EBNA) cells expressing hTP; conditions: recombinant human TP receptor, read-out: FUNCTIONAL DATA EC50 HTP
T3 construct: expressed in transfected cells; host or cells: HEK-293(EBNA)
T3 sequence (P21731 1-343): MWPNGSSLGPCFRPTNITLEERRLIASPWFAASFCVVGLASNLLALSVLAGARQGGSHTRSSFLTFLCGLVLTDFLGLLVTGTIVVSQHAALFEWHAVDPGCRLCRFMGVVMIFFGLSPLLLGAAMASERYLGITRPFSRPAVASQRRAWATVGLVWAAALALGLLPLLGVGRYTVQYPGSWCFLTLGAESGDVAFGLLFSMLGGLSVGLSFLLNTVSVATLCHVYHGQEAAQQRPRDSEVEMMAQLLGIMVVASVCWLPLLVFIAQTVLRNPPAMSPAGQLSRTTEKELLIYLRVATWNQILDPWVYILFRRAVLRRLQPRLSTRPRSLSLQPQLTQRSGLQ
Protocol: as §1, §2, §3, §4, §5, §6

Row | SMILES | EC50 (hFP) | EC50 (hEP3A/Gqi5) | EC50 (hTP)
1 | Cc1sc(CC[C@H](O)/C=C/[C@H]2[C@H](C)CC(O)[C@@H]2C/C=C\CCCC(=O)O)cc1Br (single isomer, unassigned) | 43 nM |  | 
2 | C=C[C@@H]1CC(O)[C@H](C/C=C\CCCC(=O)OC)[C@H]1/C=C/[C@@H](O)CCc1cc(Br)c(C)s1 (single isomer, unassigned) [drawing 49] | 742 nM | 6010 nM | 1810 nM

The remaining lines, values ahead:

Row | EC50 (hFP) | EC50 (hEP3A/Gqi5) | EC50 (hTP) | SMILES
3 | 61 nM | 304 nM | 243 nM | C=C[C@@H]1CC(O)[C@H](C/C=C\CCCC(=O)O)[C@H]1/C=C/[C@@H](O)CCc1cc(Br)c(C)s1 (single isomer, unassigned) [drawing 47]
4 | 1530 nM | 554 nM |  | C=C[C@@H]1CC(O)[C@H](C/C=C\CCCC(=O)O)[C@H]1/C=C/[C@@H](O)CCc1cc(Br)c(C)s1 (single isomer, unassigned) [drawing 48]
5 | > 10000 nM |  | > 10000 nM | C=C[C@@H]1CC(O)[C@H](C/C=C\CCCC(=O)OC)[C@H]1/C=C/[C@@H](O)CCc1cc(Br)c(C)s1 (single isomer, unassigned) [drawing 51]
